According to publication PMC7744773 (Redox Biology, 2020):

Target: CrGSNOR1 (Chlamydomonas reinhardtii, UniProt A0A2K3D6R4)
Assay: X-ray crystal structure, […] Å
Settings: co-crystallised with 1 mM NAD^+, pH 8.5; cofactor-binding domain

CrGSNOR1, sequence (A0A2K3D6R4 1-378): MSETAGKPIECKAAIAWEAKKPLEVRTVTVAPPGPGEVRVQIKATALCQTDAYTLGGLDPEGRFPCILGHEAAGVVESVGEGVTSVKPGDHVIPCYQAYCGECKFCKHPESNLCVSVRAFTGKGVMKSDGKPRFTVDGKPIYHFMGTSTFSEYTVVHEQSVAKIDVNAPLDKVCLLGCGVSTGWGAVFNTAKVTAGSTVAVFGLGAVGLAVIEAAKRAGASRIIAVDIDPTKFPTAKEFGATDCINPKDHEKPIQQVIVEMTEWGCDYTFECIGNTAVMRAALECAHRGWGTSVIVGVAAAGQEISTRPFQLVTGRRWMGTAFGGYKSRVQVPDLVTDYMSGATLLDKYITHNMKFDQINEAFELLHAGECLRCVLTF

Compound: NC(=O)c1ccc[n+]([C@@H]2O[C@H](COP(=O)(O)OP(=O)(O)OC[C@H]3O[C@@H](n4cnc5c(N)ncnc54)[C@H](O)[C@@H]3O)[C@@H](O)[C@H]2O)c1 [NAD^+]
- X-ray crystal structure, 2.3 Å: crystal structure of CrGSNOR1 under both apo- and holo-form (NAD^+-CrGSNOR1)
